Holding throughout (type): cell-based, human
Test [1] has as its system washed platelets of sepsis patients. Put plainly: Light transmission aggregometry with washed platelets. The note with it: for aggregation at last visit, discharged patients vs patients who died: last available values (discharge/death). Here is the method: Platelet reactivity assays are shown at the following time points: I: admission day, II: day 5-7 and III: day of ICU discharge. (S)=sepsis patient; (HC)=healthy control. (A-H) Platelet integrin activation (A, C, E, G) and P-selectin exposure (B, D, F, H) were measured upon stimulation with CRP-XL [0.01 μg/mL](A-D), Convulxin [0.01 μg/ml] (E, F) and ADP [5 μM] (G, H) in whole blood by flow cytometry. Representative curves upon CRP-XL stimulation at time point I are shown in A and B. (I-N) Light transmission aggregometry was performed using washed platelets [500 000 1/μL]. (I-N) Maximum aggregation is depicted upon stimulation with CRP-XL [0.1 μg/mL] […] (K, L) and TRAP-6 [10 μM] (M, N). Representative curves are shown in FIG. I, K, M. […] Graphs show median±IQR. Differences were analyzed by Kruskal-Wallis test (A-N). n.s. non-significant, *p>0.05, **p>0.01, ***p>0.001, ****p>0.0001
Platelet reactivity of healthy controls (HC) and patients with sepsis (S) is depicted upon stimulation with CRP-XL standard dose [0.1 μg/mL in aggregometry; 0.01 μg/mL in flow cytometry] and CRP-XL high dose (CRP-XLhi) [1 μg/mL] (A-B) Platelet activation due to integrin activation indicated through PAC-1 binding (A) or P-selectin exposure (B) was assessed in whole blood by flow cytometry. (C-D) Light transmission aggregometry was performed using washed platelets [500 000 1/μL]. Samples were measured for 5 minutes. Representative curves are shown in C. (D-E) Platelets were lysed after 5 minutes of CRP-XL stimulation or resting conditions. Staining was performed with phospho-tyrosine antibody 4g10. 72 kDa band intensity was set in relation to a housekeeping protein in arbitrary units (AU). All graphs show median f IQR.
(A) Light transmission aggregometry was performed using washed platelets [500 000 1/μL]. Maximum aggregation is depicted upon stimulation with CRP-XL (C) [0.1 μg/mL] and TRAP-6 [5 μM](T). (B) mean platelet volume. (C) Reticulated platelets indicated as thiazole orange (TO) positive fraction were assessed by flow cytometry. (D) GPVI-ectodomain plasma-levels measured by ELISA. (E) Platelet count. (F) SOFA-Score. All graphs show median f IQR. Differences were analyzed using Kolmogorov-Smirnov test. n.s. non-significant, *p>0.05, **p>0.01,
After centrifugation of whole blood at 152 g for 20 min, platelet rich plasma (PRP) was separated and incubated in acetylsalicylic acid (ASS) for 30 min (final concentration 2 μM). Prostaglandine E1 (1 μM) and apyrase (2 U/mL) were added and platelets were washed with modified HEPES-buffered Tyrode's solution once (1000 g, 10 min). PPP was cryopreserved for further investigation. Afterwards platelet count was adjusted to 500 000 1/μL through resuspension in re-calcified Hepes buffered Tyrode's solution (CaCl2) 2 mM). Light transmission aggregometry was performed using an APACT 4S (LABiTec, Ahrensburg, Germany) aggregometer at 37° C. stirring conditions. Maximum aggregation was assessed in percent in relation to re-calcified Hepes buffered Tyrode's solution as blank. For further molecular analysis platelets were lysed through addition of ice-cold 2× lysis buffer (NaCl150 mM, HEPES 15 mM, EGTA10 mM, Triton X-100 2%, Na3VO4 2 mM, PMSF 1 mM, Aprotinin A 1 mM, Leupeptin 1 mM, Pepstatin 1 mM).

In test [2] the test system is platelets of Covid-19 patients.
For test [3], the system named is platelets (GPVI-mediated platelet reactivity). As to the kind of experiment: Platelet-antibiotic co-incubation in whole blood, P-selectin exposure by flow cytometry. The settings on record: whole blood of healthy donors, antibiotic at therapeutic peak plasma level, 2 h at 37° C., resting and CRP-XL [0.01 μg/mL] stimulated platelets. Here is the method: Antibiotics were added to whole blood of healthy donors. Incubation was performed for 2 h at 37° C. P-selectin exposure was determined subsequently by flow cytometry on resting (A) and CRP-XL [0.01 μg/mL] stimulated platelets (B). The following drugs were used: piperacillin/tazobactam [P/T=298 μg/mL; 4 μg/mL], vancomycin [V=60 μg/mL], metronidazole [M=25 μg/mL], ciprofloxacin [Cx=4.56 μg/mL].
Whole blood was diluted 1:10 in modified HEPES-buffered Tyrode's solution (NaCl 137 mM, NaHCO312 mM, HEPES 5 mM, KCl 2.7 mM, MgCl2 1 mM, Na2HPO4 0.43 mM, glucose 0.1%, BSA 0.36%). Flow cytometry was conducted using a FACSCelesta™ flow cytometer (Becton Dickinson, Franklin Lakes, NJ, USA). Prior to reactivity measurement, platelets were incubated with respective agonists at indicated concentrations for five minutes. Staining of reticulated platelets was performed using thiazole orange (Sigma Aldrich, St. Louis, MO, USA) for 60 min at room temperature protected from light. After antibody addition samples rested for 15 min in the dark until the reaction was stopped with addition of 1.5 mL FACS-Flow sample buffer (Becton Dickinson).
As all sepsis patients received antibiotic therapy, the present inventors next evaluated whether antimicrobial drugs could reduce GPVI/CLEC-2 reactivity.
(In general: A flow cytometer gives signals particle by particle.)

The subject of test [4] is platelets of sepsis patients. As to the kind of experiment: Platelet reactivity by flow cytometry in whole blood (PAC-1 binding, CD62P exposure). The note with it: sepsis patients vs healthy controls, day of ICU admission; CRP-XL 0.01 μg/mL, convulxin 0.01 μg/mL, ADP 5 μM.
Protocol: Platelet reactivity assays are shown at the following time points: I: admission day, II: day 5-7 and III: day of ICU discharge. (S)=sepsis patient; (HC)=healthy control. (A-H) Platelet integrin activation (A, C, E, G) and P-selectin exposure (B, D, F, H) were measured upon stimulation with CRP-XL [0.01 μg/mL](A-D), Convulxin [0.01 μg/ml] (E, F) and ADP [5 μM] (G, H) in whole blood by flow cytometry. […] (I-N) Maximum aggregation is depicted upon stimulation with CRP-XL [0.1 μg/mL] (I, J) rhodocytin [1 nM] (K, L) and TRAP-6 [10 μM] (M, N). […] Graphs show median±IQR. Differences were analyzed by Kruskal-Wallis test (A-N). n.s. non-significant, *p>0.05, **p>0.01, ***p>0.001, ****p>0.0001
Platelet reactivity of healthy controls (HC) and patients with sepsis (S) is depicted upon stimulation with CRP-XL standard dose [0.1 μg/mL in aggregometry; 0.01 μg/mL in flow cytometry] and CRP-XL high dose (CRP-XLhi) [1 μg/mL] (A-B) Platelet activation due to integrin activation indicated through PAC-1 binding (A) or P-selectin exposure (B) was assessed in whole blood by flow cytometry. (C-D) Light transmission aggregometry was performed using washed platelets [500 000 1/μL]. Samples were measured for 5 minutes. […] All graphs show median f IQR. […]
The next test deals with washed platelets. Put plainly: Immunoblot of global tyrosine phosphorylation (4G10) in platelet lysates. The note with it: 0.1 μg/mL CRP-XL or 10 nM rhodocytin. Here is the method: Washed platelets [500 000 1/μL] of healthy controls (HC) and patients (S) were stimulated with CRP-XL (C) and rhodocytin (R). Lysis was done at the following time points: C: 5 min, R: 10 min. I: admission day, II: day 5-7 and III: day of ICU discharge. (A-C) Western Blot analysis of platelet lysates. Staining was performed with anti-phospho-tyrosine antibody 4g10. 72 kDa band intensity was set in relation to signal intensity of Syk or GAPDH in arbitrary units (AU). Representative blots are shown in figures A (time point I) and B (time point III). (D-F) Phosphorylation of signaling peptides Syk and Lat was investigated by Western blot. One representative blot is shown in D. (G-J) Phosphorylation analysis of ITIM-signaling associated phosphatases SHP-1 and SHP-2. Phospho-protein intensity was set in relation to intensity of unphosphorylated protein shown in H and J. Representative Western blots are shown in G and I. All graphs display median f IQR.
After centrifugation of whole blood at 152 g for 20 min, platelet rich plasma (PRP) was separated and incubated in acetylsalicylic acid (ASS) for 30 min (final concentration 2 μM). Prostaglandine E1 (1 μM) and apyrase (2 U/mL) were added and platelets were washed with modified HEPES-buffered Tyrode's solution once (1000 g, 10 min). […] Maximum aggregation was assessed in percent in relation to re-calcified Hepes buffered Tyrode's solution as blank. […]
(In general: In western blotting, separated proteins are transferred to a membrane and probed.)

Read-outs that look alike come from different tables or passages of the source. Bounds are passed on as bounds.

As for TRAP-6, the “aggregation at last visit, discharged patients vs patients who died” value in test [1] (sepsis patients) is “no differences”. For the same molecule, the “aggregation potential, mean” value in test [1] (sepsis platelets, day of ICU admission, 10 μM TRAP-6) is listed as 34.2%. In test [1] (sepsis platelets, day of ICU admission, 10 μM TRAP-6, every studied patient), the “aggregation potential, minimum” value was at least 21.2%. Moreover, in test [2], the “platelet reactivity upon stimulation” value is reported as “global hyporeactivity”.

Consider piperacillin/tazobactam, for which the “impact on GPVI-mediated platelet reactivity (P-selectin exposure)” value (“impact … (P-selectin exposure)” below) in test [3] is “none of these drugs had an impact on GPVI-mediated platelet reactivity”.

In the case of `O=C(O)c1cn(C2CC2)c2cc(N3CCNCC3)c(F)cc2c1=O` [ciprofloxacin], the “impact … (P-selectin exposure)” value in test [3] is on record as “none of these drugs had an impact on GPVI-mediated platelet reactivity”.

Regarding `CN[C@H](CC(C)C)C(=O)N[C@H]1C(=O)N[C@@H](CC(N)=O)C(=O)N[C@H]2C(=O)N[C@H]3C(=O)N[C@H](C(=O)N[C@H](C(=O)O)c4cc(O)cc(O)c4-c4cc3ccc4O)[C@H](O)c3ccc(c(Cl)c3)Oc3cc2cc(c3O[C@@H]2O[C@H](CO)[C@@H](O)[C@H](O)[C@H]2O[C@H]2C[C@](C)(N)[C@H](O)[C@H](C)O2)Oc2ccc(cc2Cl)[C@H]1O` [vancomycin], the “impact … (P-selectin exposure)” value in test [3] is reported as “none of these drugs had an impact on GPVI-mediated platelet reactivity”.

Consider `Cc1ncc([N+](=O)[O-])n1CCO` [metronidazole], for which the “impact … (P-selectin exposure)” value in test [3] is given as “none of these drugs had an impact on GPVI-mediated platelet reactivity”.

As for `Nc1ncnc2c1ncn2[C@@H]1O[C@H](COP(=O)(O)OP(=O)(O)O)[C@@H](O)[C@H]1O` [ADP], in test [4], the “platelet activation (PAC-1 binding, CD62P exposure) upon stimulation” value is “platelet reactivity was also highly impaired”. In test [2] (19 critically-ill Covid-19 patients, 14 days at ICU), the “platelet reactivity upon stimulation” value was “global hyporeactivity”.

B1: rhodocytin: selective CLEC-2 agonist (protein)
chain 1: GLEDCDFGWSPYDQHCYQAFNEQKTWDEAEKFCRAQENGAHLASIESNGEADFVSWLISQKDELADEDYVWIGLRAQNKEQQCSSEWSDGSSVSYENLIDLHTKKCGALEKLTGFRKWVNYYCEQMHAFVCKLLPY
chain 2: DCPSGWSSYEGHCYKPFNEPKNWADAERFCKLQPKHSHLVSFQSAEEADFVVKLTRPRLKANLVWMGLSNIWHGCNWQWSDGARLNYKDWQEQSECLAFRGVHTEWLNMDCSSTCSFVCKFKA
Turning to B1, the “platelet aggregation upon stimulation” value in test [1] (sepsis patients vs healthy controls, time point I, CRP-XL 0.1 μg/ml, rhodocytin 10 nM) is recorded as “abolished aggregation was found in 5/8 patients”. Moreover, in test [1] (sepsis patients), the “aggregation at last visit, discharged patients vs patients who died” value was “no differences”. Further, the “maximum aggregation, recovery at discharge” value in test [1] (sepsis patients, time point III (discharge from ICU), CRP-XL 0.1 μg/ml, rhodocytin) is recorded as “completely recovered”. The results for the “induction of tyrosine phosphorylation (pTyr bands)” value with washed platelets (platelets of healthy donors) and in the test with washed platelets (platelets of sepsis patients) were “readily inducible in healthy donors” and “tyrosine phosphorylation was not inducible in platelets of sepsis patients”, respectively.

B2: convulxin (protein)
chain 1: GLHCPSDWYYYDQHCYRIFNEEMNWEDAEWFCTKQAKGAHLVSIKSAKEADFVAWMVTQNIEESFSHVSIGLRVQNKEKQCSTKWSDGSSVSYDNLLDLYITKCSLLKKETGFRKWFVASCIGKIPFVCKFPPQC
chain 2: GFCCPSHWSSYDRYCYKVFKQEMTWADAEKFCTQQHTGSHLVSFHSTEEVDFVVKMTHQSLKSTFFWIGANNIWNKCNWQWSDGTKPEYKEWHEEFECLISRTFDNQWLSAPCSDTYSFVCKFEA
On to B2, for which the “platelet activation (PAC-1 binding, CD62P exposure) upon stimulation” value in test [4] is given as “impaired platelet activation was still evident, albeit to a lesser extent compared to CRP-XL”.
